Measured values reported in ChEMBL document CHEMBL1201862, “PubChem BioAssay data set” (2004).
Activity calls are given as the source filed them. For most assays here, no stated cut-off is given here; in the data, actives have a measured EC50 and inactives only a lower limit.

Legend:
[1] = biological target: T1, DNA dC->dU-editing enzyme APOBEC-3A (Homo sapiens, UniProt P31941); assay: SAR analysis of small molecule inhibitors of APOBEC3A DNA Deaminase via a fluorescence-based single-stranded DNA deaminase assay.; format: functional; conditions: read-out: IC50_Mean
T1 sequence (P31941 whole entry): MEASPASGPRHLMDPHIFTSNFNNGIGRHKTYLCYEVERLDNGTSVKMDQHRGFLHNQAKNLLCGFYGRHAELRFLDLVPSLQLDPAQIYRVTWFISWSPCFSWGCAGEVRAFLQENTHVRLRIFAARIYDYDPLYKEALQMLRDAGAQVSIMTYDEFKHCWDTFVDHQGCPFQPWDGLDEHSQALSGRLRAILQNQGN

[2] = biological target: T2, DNA dC->dU-editing enzyme APOBEC-3G (Homo sapiens, UniProt Q9HC16); assay: inhibition of APOBEC3G ssDNA deamination – biochemical, fluorescence, single-stranded DNA substrate, SAR follow-up (AID 602136); format: functional; conditions: read-out: IC50_Mean
T2 sequence (Q9HC16 whole entry): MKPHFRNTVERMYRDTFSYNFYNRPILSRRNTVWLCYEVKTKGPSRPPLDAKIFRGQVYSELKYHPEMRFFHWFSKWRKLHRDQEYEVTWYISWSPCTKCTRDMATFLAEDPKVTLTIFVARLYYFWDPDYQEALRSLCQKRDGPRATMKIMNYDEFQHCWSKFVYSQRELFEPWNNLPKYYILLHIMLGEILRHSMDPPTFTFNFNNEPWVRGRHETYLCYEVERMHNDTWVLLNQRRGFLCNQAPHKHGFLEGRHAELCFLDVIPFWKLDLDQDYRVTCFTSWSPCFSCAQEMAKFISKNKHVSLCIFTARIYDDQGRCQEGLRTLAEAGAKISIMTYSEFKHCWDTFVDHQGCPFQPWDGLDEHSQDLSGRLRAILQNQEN

[3] = biological target: T3, Apoptotic protease-activating factor 1 (Homo sapiens, UniProt O14727); assay: SAR analysis of small molecule Activators of Apaf-1 in a Fluorescent assay - set 2.; format: functional; conditions: read-out: EC50_Mean
T3 sequence (O14727 whole entry): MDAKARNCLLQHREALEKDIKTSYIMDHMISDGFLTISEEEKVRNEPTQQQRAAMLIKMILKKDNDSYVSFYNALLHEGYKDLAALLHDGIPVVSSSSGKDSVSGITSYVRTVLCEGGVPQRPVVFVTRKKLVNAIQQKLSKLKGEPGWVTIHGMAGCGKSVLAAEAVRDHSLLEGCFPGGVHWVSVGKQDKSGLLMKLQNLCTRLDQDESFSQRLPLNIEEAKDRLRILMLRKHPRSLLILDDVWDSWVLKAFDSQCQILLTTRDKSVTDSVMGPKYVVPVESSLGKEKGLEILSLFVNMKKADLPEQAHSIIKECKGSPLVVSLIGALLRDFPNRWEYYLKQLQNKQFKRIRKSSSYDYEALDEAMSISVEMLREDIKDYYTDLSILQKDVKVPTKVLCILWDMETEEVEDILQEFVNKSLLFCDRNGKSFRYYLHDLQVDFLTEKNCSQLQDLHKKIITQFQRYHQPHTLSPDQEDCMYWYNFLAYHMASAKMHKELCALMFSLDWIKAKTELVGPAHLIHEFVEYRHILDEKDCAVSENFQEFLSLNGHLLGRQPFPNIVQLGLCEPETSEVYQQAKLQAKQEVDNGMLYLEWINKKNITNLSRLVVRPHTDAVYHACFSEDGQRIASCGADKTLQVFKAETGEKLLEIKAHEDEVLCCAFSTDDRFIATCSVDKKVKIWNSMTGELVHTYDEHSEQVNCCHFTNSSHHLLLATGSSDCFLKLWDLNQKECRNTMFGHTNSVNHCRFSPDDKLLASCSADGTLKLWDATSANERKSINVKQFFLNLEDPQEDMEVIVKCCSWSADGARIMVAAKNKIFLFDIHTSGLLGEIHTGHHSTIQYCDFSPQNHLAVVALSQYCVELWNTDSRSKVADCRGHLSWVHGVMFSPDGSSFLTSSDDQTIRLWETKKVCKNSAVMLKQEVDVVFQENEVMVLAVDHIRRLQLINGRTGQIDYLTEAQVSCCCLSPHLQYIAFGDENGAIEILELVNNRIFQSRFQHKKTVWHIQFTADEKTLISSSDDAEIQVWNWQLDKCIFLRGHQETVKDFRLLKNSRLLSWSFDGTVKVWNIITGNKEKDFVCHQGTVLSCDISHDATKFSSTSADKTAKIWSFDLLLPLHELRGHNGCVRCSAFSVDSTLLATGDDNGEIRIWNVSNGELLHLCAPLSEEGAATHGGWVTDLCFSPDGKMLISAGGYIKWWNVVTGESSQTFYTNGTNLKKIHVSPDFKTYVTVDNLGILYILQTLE

[4] = SAR analysis of small molecule activators of Apaf-1 using a LZ-Caspase-9/Caspase-3 Fluorescent Selectivity assay - Set 2.; format: functional; conditions: read-out: EC50_Mean
[5] = biological target: T1, DNA dC->dU-editing enzyme APOBEC-3A; assay: SAR analysis of small molecule inhibitors of APOBEC3A DNA Deaminase via a fluorescence-based single-stranded DNA deaminase assay - Set 2.; format: functional; conditions: read-out: IC50_Mean
[6] = biological target: T2, DNA dC->dU-editing enzyme APOBEC-3G; assay: SAR analysis of small molecule inhibitors of APOBEC3G DNA Deaminase via a fluorescence-based single-stranded DNA deaminase assay - Set 2.; format: functional; conditions: read-out: IC50_Mean
[7] = biological target: Multidrug resistance protein CDR1 (Candida albicans, UniProt P43071); assay: inhibition of Nile Red efflux via Candida CDR1 – S. cerevisiae AD1-8u, singleplex, Cherry Pick1 hits, dose response (AID 588606); format: functional
Chain of Multidrug resistance protein CDR1 (P43071 whole entry, looked up): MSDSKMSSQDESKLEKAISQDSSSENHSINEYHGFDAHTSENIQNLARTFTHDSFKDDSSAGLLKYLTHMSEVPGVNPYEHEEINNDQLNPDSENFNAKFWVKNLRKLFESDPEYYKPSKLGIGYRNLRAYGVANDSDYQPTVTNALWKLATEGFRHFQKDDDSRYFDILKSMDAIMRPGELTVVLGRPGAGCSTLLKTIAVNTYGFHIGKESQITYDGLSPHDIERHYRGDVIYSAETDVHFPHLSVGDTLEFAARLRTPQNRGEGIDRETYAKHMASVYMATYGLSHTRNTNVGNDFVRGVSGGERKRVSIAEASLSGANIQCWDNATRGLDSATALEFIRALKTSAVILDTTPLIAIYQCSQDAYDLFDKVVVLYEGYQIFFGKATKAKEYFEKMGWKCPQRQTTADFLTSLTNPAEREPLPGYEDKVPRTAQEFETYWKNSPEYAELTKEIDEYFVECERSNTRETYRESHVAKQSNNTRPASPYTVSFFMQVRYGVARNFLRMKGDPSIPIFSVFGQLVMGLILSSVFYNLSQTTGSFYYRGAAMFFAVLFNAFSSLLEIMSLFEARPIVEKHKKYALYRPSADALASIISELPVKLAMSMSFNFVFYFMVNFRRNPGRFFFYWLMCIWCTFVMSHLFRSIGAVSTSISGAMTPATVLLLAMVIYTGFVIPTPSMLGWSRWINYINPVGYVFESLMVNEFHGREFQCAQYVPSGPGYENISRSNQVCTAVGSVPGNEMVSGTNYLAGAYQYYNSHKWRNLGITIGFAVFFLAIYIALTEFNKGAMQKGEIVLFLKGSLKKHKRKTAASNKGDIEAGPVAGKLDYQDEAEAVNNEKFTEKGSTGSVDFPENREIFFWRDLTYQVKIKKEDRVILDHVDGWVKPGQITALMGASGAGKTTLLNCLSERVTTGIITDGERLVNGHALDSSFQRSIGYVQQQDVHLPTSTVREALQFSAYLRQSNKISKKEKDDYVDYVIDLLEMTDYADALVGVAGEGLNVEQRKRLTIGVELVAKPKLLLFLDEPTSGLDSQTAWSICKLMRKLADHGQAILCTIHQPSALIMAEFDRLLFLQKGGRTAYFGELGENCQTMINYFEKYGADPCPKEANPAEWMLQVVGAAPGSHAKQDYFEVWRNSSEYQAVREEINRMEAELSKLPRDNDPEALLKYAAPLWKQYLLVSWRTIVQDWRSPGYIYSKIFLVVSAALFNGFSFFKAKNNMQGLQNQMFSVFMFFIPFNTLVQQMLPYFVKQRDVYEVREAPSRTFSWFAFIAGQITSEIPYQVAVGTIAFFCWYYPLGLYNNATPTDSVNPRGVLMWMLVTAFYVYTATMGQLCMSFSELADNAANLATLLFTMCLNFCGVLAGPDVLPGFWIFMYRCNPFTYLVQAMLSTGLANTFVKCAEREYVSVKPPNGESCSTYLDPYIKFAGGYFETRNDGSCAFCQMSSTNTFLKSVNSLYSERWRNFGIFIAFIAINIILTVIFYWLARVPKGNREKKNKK

[8] = biological target: T4, Heat shock factor protein 1 (Mus musculus, UniProt P38532); assay: decrease of HSF1-responsive luciferase luminescence – cell-based, NIH3T3, dose retest, confirmation (AID 2382); format: functional;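 further: NIH3T3 fibroblasts with HSF1-driven luciferase reporter stressed by proteasome inhibitor MG132; luminescence from HSF1-driven luciferase expression after 8 hours of MG132 stress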
T4 sequence (P38532 whole entry): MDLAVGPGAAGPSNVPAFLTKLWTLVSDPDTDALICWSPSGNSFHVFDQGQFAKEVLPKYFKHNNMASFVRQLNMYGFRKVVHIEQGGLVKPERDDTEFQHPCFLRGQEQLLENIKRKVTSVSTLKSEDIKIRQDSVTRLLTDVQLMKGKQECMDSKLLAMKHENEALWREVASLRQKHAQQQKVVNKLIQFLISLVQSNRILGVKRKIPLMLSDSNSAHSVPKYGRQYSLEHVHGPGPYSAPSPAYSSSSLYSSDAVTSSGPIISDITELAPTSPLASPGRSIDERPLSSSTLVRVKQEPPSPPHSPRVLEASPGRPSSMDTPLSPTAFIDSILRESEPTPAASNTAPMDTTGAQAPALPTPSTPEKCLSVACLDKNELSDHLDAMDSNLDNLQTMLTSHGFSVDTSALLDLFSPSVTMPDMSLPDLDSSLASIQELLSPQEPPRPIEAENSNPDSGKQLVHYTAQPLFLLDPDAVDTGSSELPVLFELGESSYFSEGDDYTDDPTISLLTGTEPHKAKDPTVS

[9] = biological target: Serine/threonine-protein kinase pim-1 (Homo sapiens, UniProt P11309); format: functional
Chain of Serine/threonine-protein kinase pim-1 (P11309 whole entry): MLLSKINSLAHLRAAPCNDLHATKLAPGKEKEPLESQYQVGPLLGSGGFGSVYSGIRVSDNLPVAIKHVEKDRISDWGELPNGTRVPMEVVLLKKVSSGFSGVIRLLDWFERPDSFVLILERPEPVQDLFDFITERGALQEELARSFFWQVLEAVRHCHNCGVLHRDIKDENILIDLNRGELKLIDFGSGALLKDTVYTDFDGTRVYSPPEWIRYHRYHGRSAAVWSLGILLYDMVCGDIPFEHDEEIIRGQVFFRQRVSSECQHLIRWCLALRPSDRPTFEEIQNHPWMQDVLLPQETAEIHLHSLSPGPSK

INS1 = assay: INS-1E survival protection against cytokine death – cell-based, luminescence, retest, dose response (AID 449756); format: functional; conditions: Rattus norvegicus;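 further: cell death triggered by IL-1 beta plus TNF-alpha plus IFN-gamma mixture; protective hits raise ATP signal compared with cytokine alone wells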
[10] = HEK-293T cell viability reduction – luminescence, B-cell screen hits, cytotoxicity control for BCR NF-kB inhibitor project, dose response (AID 489021); format: functional, cell-based;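 further: HEK-293T cells carrying an NF-kB luciferase reporter; cells exposed to compound for about 14 hours before viability readout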
Protein RecA = biological target: T5, Protein RecA (Mycobacterium tuberculosis, UniProt P9WHJ3); assay: Fluorescence Cell-Free Homogeneous Dose Retest to Identify Inhibitors of RecA-Intein Splicing Activity. [Related pubchem assays (depositor defined):AID2097, AID2223, AID489010, AID492950]; format: functional
T5 sequence (P9WHJ3 whole entry): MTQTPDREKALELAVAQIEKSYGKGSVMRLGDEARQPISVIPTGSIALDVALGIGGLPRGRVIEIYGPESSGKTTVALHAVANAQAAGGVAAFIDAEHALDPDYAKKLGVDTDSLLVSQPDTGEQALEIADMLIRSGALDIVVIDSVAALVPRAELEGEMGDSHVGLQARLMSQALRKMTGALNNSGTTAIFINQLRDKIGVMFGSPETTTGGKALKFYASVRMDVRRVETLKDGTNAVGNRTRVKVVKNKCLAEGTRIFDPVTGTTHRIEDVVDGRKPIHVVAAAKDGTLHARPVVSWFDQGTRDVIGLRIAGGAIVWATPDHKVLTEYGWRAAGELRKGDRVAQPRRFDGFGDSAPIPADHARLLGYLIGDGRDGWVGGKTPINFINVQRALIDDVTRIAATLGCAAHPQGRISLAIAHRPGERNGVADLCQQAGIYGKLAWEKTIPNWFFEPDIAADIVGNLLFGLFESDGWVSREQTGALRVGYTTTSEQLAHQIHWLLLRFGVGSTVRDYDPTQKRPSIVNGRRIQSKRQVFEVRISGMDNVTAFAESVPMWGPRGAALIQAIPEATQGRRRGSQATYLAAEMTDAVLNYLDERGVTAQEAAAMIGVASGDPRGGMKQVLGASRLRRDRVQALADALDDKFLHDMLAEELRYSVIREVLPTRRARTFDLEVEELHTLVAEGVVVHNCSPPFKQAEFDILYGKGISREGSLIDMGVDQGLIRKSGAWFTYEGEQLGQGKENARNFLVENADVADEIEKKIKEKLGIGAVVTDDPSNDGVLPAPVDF

[11] = DRD fibroblast viability loss – cell-based, non-viral oncogenic, luminescence, dose response (AID 1934); format: functional; conditions: Homo sapiens
Streptokinase A = biological target: T6, Streptokinase A (Streptococcus pyogenes serotype M1, UniProt P10520); assay: viability-normalized secreted streptokinase activity reduction – plasminogen activation absorbance, OD405, dose response (AID 1914); format: functional, Streptococcus pyogenes M1 GAS;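 further: secreted streptokinase activity via plasminogen activation per viability signal from cell pellet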
T6 sequence (P10520 whole entry): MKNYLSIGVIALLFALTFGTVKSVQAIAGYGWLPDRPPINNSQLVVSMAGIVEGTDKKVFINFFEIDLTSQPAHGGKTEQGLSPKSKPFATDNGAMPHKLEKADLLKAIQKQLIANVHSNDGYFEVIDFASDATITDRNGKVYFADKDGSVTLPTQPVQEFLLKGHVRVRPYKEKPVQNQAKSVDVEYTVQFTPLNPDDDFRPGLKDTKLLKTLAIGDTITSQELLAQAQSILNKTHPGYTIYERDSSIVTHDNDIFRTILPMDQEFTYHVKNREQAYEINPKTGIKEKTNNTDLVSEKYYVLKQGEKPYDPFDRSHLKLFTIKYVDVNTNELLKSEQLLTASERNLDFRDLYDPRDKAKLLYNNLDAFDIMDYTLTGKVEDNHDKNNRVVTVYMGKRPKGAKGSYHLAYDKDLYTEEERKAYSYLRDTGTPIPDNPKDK

BJ [12] = assay: BJ-TERT-LT-ST fibroblast viability loss – cell-based, RAS-independent, luminescence, dose response (AID 1935); format: functional; conditions: Homo sapiens;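 further: BJ fibroblasts immortalized with TERT plus LT and ST oncogenes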
[13] = test system: Streptococcus sp. 'group A'; assay: Streptococcus pyogenes SK(-)GAS viability under kanamycin – luminescence, BacTiterGlo, confirmation, counter-screen for streptokinase expression inhibitor project, dose response (AID 1900); format: functional, organism-based
BJ [14] = assay: growth inhibition of engineered Ras-driven BJ cells – cell-based, alamar blue fluorescence, cherrypicked samples, dose response (AID 2631); format: functional; conditions: Homo sapiens;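 further: confirmatory dose-response assay in RAS-dependent BJ fibroblasts engineered with TERT, LT and ST, with cytotoxicity read by fluorescence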
[15] = biological target: T7, Replicative DNA helicase DnaB (Mycobacterium tuberculosis, UniProt P9WMR3); assay: DnaB intein splicing inhibitors, dose response, biochemical, cell-free fluorescence (AID 449749); format: functional
T7 sequence (P9WMR3 whole entry): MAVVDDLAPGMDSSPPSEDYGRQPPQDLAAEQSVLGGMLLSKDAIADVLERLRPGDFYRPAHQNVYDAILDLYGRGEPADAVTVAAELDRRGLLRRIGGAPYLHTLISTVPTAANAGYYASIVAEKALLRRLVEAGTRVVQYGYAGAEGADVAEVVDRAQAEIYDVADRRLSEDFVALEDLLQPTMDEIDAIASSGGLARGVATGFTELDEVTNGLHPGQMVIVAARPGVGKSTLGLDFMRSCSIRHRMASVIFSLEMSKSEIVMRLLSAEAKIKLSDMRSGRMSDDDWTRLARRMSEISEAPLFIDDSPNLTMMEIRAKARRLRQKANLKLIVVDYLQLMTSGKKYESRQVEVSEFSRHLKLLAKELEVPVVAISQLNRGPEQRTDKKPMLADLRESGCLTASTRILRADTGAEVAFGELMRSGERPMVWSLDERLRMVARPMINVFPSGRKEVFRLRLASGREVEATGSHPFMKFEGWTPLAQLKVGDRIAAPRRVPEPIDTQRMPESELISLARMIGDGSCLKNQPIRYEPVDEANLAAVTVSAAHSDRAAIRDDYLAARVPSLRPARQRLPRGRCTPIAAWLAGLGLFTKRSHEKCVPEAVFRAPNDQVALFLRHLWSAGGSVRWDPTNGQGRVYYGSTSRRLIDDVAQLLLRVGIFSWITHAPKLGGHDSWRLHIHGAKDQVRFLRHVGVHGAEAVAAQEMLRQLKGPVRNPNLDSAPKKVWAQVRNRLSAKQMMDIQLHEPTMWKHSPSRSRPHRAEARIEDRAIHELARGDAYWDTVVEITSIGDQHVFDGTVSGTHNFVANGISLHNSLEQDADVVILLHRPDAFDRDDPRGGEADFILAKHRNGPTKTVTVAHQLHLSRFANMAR

Streptococcus = assay: GAS UMAA2166 growth inhibition – luminescence, BacTiterGlo, counter-screen for streptokinase expression inhibitor project, dose response (AID 1915); format: functional, organism-based;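 further: potency for reduction of bacterial viability or growth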
BJ [16] = assay: BJ-TERT fibroblast viability loss – cell-based, RAS-independent, luminescence, dose response (AID 1933); format: functional; conditions: Homo sapiens
BJ [17] = assay: cells; format: functional, cell-based; conditions: Homo sapiens
[18] = biological target: T3, Apoptotic protease-activating factor 1; assay: SAR analysis of small molecule Activators of Apaf-1 in a Fluorescent assay.; format: functional; conditions: read-out: EC50_Mean

Compound: Cc1cc(Cl)cc2c1N[C@H](c1ccncc1)C1CC=CC21 (stereo not given in full)
- IC50 [1]: > 99 µM (inactive)
- IC50 [2]: > 99 µM (inactive)

Compound: CC(CN1CCCCC1)C(=O)O (stereo not given)
- EC50 [3]: > 100 µM (inactive)
- EC50 [4]: > 100 µM (inactive)

Compound: Cc1ccc(-c2csc3nnc(SCC(N)=O)n23)cc1
- IC50 [5]: > 99 µM (inactive)
- IC50 [6]: > 99 µM (inactive)

Compound: O=C1C(Cc2ccccc2)Nc2ncnc(N3CCN(c4ccccc4)CC3)c2N1Cc1ccccc1 (stereo not given)
- EC50 [7]: 14.7 µM (active)
- EC50 [8]: > 195 µM (not active)

Compound: Cc1ccc2c(Nc3cc(OCc4ccccc4Br)ccc3Sc3ccc(O)cc3)ncnc2n1
- Ki [9]: 5.01 µM (active)

Compound: O=C(NC(=S)Nc1ccc2[nH]c(=O)[nH]c2c1)c1cncc(Br)c1
- EC50 [7]: 2.09 µM (active)

Compound: CC1CCc2c(sc3nc(C(C)(C)C)nc(N4CCN(C(=O)CCl)CC4)c23)C1 (stereo not given)
- AC50 (INS1): 5.84 µM (active)
- IC50 [10]: > 80 µM (inactive)
- EC50 (Protein RecA): 0.481 µM (active)
- EC50 [11]: 5.42 µM (inconclusive)
- EC50 (Streptokinase A): 1.79 µM (active)
- EC50 (BJ [12]): 4.69 µM (inconclusive)
- EC50 [13]: 2.96 µM (active)
- EC50 (BJ [14]): 0.588 µM (active)
- AC50 [15]: 2.45 µM (active)
- EC50 (Streptococcus): 14.1 µM (active)
- EC50 (BJ [16]): 2.02 µM (active)
- EC50 (BJ [17]): 5.41 µM (inconclusive)

Compound: COc1ccc(C)cc1NC(=O)CCS(=O)(=O)c1ccc2c(c1)CC(C)N2C(=O)C1CC1 (stereo not given)
- EC50 [18]: > 100 µM (inactive)

Compound: O=C(O)C1CC(c2cccc(Br)c2)=NO1 (stereo not given)
- EC50 [3]: > 100 µM (inactive)
- EC50 [4]: > 100 µM (inactive)
